From US10570097B2, “Antimicrobial imidazolium compounds” (AGENCY FOR SCIENCE, TECHNOLOGY AND RESEARCH, priority 2014, dated 2020)

Key:
S. aureus [1] = assay: Minimum inhibitory concentration by microdilution assay; format: cell-based, Staphylococcus aureus (ATCC 6538); conditions: 37° C., 24 h
Procedure: (§1) Staphylococcus aureus (ATCC 6538, gram-positive), Escherichia coli (ATCC 25922, gram-negative), Pseudomonas aeruginosa (gram-negative), and Candida albicans (ATCC 10231, yeast) were used as representative microorganisms to challenge the antimicrobial functions of the imidazolium salts. All bacteria and yeast were stored frozen at −80° C., and were grown overnight at 37° C. in Tryptic Soy broth (TSB) prior to experiments. Yeast was grown overnight at 22° C. in Yeast Mold (YM) broth. Subsamples of these cultures were grown for 3 h further and diluted to give an optical density value of 0.07 at 600 nm, corresponding to 3×10^8 CFU mL^−1 (MacFarland's Standard).
(§2) The oligomer compounds were dissolved in PBS at a concentration of 1 mg mL^1 and the minimal inhibitory concentrations (MICs) were determined by microdilution assay. Typically, a 100 μL microbial solutions (containing 3×10^8 cells mL^−1) were added to 100 μL of PBS containing the test imidazolium salts (normally ranging from […] in serial two-fold dilutions) in each well of the 96-well microtiter plate. The plates were incubated at 37° C. for 24 h with shaking at 300 rpm, with monitoring at the 2, 4, 6, 8, and 24 h time points. […] Broth and PBS solution containing microbial cells alone were used as negative controls, and experiments were run in triplicates.

E. coli [2] = assay: as above; format: cell-based, Escherichia coli (ATCC 25922); conditions: E. coli, 37° C., 24 h
Procedure: as §1, §2

P. aeruginosa = assay: as above; format: cell-based, Pseudomonas aeruginosa; conditions: 37° C., 24 h
Procedure: as §1, §2

C. Albicans = assay: as above; format: cell-based, Candida albicans (ATCC 10231); conditions: 24 h
Procedure: as §1, §2

[3] = system: 4 microbes (S. aureus, E. coli, P. aeruginosa, C. Albicans); assay: MIC over the 4 microbes tested (geometric mean); format: cell-based; conditions: geometric mean of the MICs of the 4 microbes
Procedure: Staphylococcus aureus (ATCC 6538, gram-positive), Escherichia coli (ATCC 25922, gram-negative), Pseudomonas aeruginosa (gram-negative), and Candida albicans (ATCC 10231, yeast) were used as representative microorganisms to challenge the antimicrobial functions of the imidazolium salts. All bacteria and yeast were stored frozen at −80° C., and were grown overnight at 37° C. in Tryptic Soy broth (TSB) prior to experiments. Yeast was grown overnight at 22° C. in Yeast Mold (YM) broth. […] Typically, a 100 μL microbial solutions (containing 3×10^8 cells mL^−1) were added to 100 μL of PBS containing the test imidazolium salts (normally ranging from […] in serial two-fold dilutions) in each well of the 96-well microtiter plate. The plates were incubated at 37° C. for 24 h with shaking at 300 rpm, with monitoring at the 2, 4, 6, 8, and 24 h time points. […] Broth and PBS solution containing microbial cells alone were used as negative controls, and experiments were run in triplicates. The selectivity of the materials was also further assessed, by calculating the selectivity indices (SI), a measure and a comparison of safety and efficacies of each oligomer compound. […] Herein, the more stringent control of HC10 value was chosen over the HC50 value often reported in literature.

[4] = system: rat red blood cells (RBCs); assay: Hemolysis; format: cell-based; conditions: lowest concentration that induces 10% or more hemolysis; rat RBCs, 1 h, 37° C.; maximum tested 100,000 ppm
Procedure: Before these materials can be used in systemic applications, selectivity of these materials for microbial cells over mammalian cells should also be considered. Such selectivity is often determined by observation of hemolysis. Hemolysis was performed in the following manner, fresh rat red blood cells (RBCs) were diluted with PBS buffer to give an RBC stock suspension (4 vol % blood cells). A 100 μL aliquot of RBC stock was added to a 96-well plate containing […] oligomer compound stock solutions of various concentrations (serial 2-fold dilution in PBS). After 1 h incubation at 37° C., The contents of each well was pipetted into a microcentrifuge tube and then centrifuged at 4000 rpm for 5 min. Hemolytic activity was determined as a function of hemoglobin release by measuring OD576 of […] of the supernatant. A control solution that contained only PBS was used as a reference for 0% hemolysis. 100% hemolysis was measured by adding 0.5% Triton-X to the RBCs. [formula] The selectivity of the materials was also further assessed, by calculating the selectivity indices (SI), a measure and a comparison of safety and efficacies of each oligomer compound. […] Herein, the more stringent control of HC10 value was chosen over the HC50 value often reported in literature.

S. aureus [5] = assay: Minimum biocidal concentration / killing efficiency (24 h); format: cell-based, Staphylococcus aureus
Procedure: (§3) To determine the minimum bacteriocidal concentration, the microbes were inoculated and prepared according to the procedure for MIC determination. […] The bacterial samples were taken out of each well after the aforementioned period, and subjected to a series of 10-fold dilutions. 20 uL of the diluted sample was then streaked across an agar plate, before incubation of the plate at 37° C. for 24 h. Colony forming units (CFU) were counted after overnight incubation, and the results were calculated according to the formula: [formula]

E. coli [6] = assay: as above; format: cell-based, Escherichia coli
Procedure: as §3

E. coli [7] = assay: Time kill kinetics; format: cell-based, Escherichia coli; conditions: for % kill / Log reduction: E. coli, 4MIC
Procedure: Time kill studies of the soligome compounds against E. coli were also studied. The experimental setup for time kill kinetics was similar to the set up for MBC determination. The microbes were treated with oligomer compounds at 4MIC concentration, and samples were taken out of each well at 2 minutes. 500 μl of cell suspension was removed, rescued by a series of 10-fold dilutions with growth medium, and kept on ice until plating. For plating, 50 μl to 200 μl of the diluted samples was spread on growth medium agar plates and colonies were counted after overnight incubation at 37° C.

[8] = Critical micellar concentration (pyrene fluorescent probe); format: physicochemical; conditions: for sharp point of inflection indicating the critical micellar concentrations: FIG. 4, deionized water
Procedure: The CMC values of the oligomer compounds were determined in both deionised (DI) water and PBS, using a LS50B luminescence spectrometer (Perkin Elmer, United States) and employing pyrene as a fluorescent probe. A known weight of the oligomer compound was dissolved in either 2 mL of DI water or PBS in a 4 mL glass vial and serial dilutions were effected. 10 μL of pyrene stock solution in acetone (6.16×10^-5 M) was added to each vial containing 1 mL of a known concentration of the oligomer compound, and the acetone was then evaporated at room temperature. The solution was allowed to equilibrate overnight and the final concentration of pyrene in each vial was 6.16×10^-7 M. The excitation spectra of the solutions were scanned from 300 to 360 nm with an emission wavelength of 395 nm, and both the excitation and emission bandwidths were set at 2.5 nm. The intensity ratios ([…]/[…]) were plotted against polymer concentration. The CMC value was given by the intersection of the tangent to the curve at the inflection and the tangent of the points at low polymer concentrations.

[9] = Gelling properties in solvents (tube inversion test); format: physicochemical
Procedure: Gels were prepared by weighing the imidazolium oligomer compounds directly into 4 mL glass vials and subsequently adding a known weight or volume of the solvent. The vials containing both the imidazolium and the solvent were either vortexed or sonicated to ensure that the imidazolium was dissolved and dispersed thoroughly before being placed in a 4° C. fridge overnight. The tube inversion test method was used to examine gel formation in different solvents.

## CCCCCC[n+]1ccn(Cc2ccc(C[n+]3ccn(Cc4ccc(C[n+]5ccn(Cc6ccccc6Cn6cc[n+](Cc7ccc(Cn8cc[n+](Cc9ccc(Cn%10cc[n+](CCCCCC)c%10)cc9)c8)cc7)c6)c5)cc4)c3)cc2)c1.[Br-].[Br-].[Cl-].[Cl-].[Cl-].[Cl-] [Compound 1]
S. aureus [1]
  MIC S.A.: 4 µg/mL
E. coli [2]
  MIC E. coli: 8 µg/mL
P. aeruginosa
  MIC P.A.: 8 µg/mL
C. Albicans
  MIC C.A.: 16 µg/mL
[3]
  MIC GM: 8 µg/mL
[4]
  HC10: >100000 ppm
S. aureus [5]; 0.5 MIC
  % killing: 99.975%
  Log reduction: 3.69 ± 0.335
S. aureus [5]; 2 MIC
  % killing: >99.999%
  Log reduction: 7.28 ± 0.036
S. aureus [5]; MIC
  % killing: 99.999%
  Log reduction: 5.35 ± 0.094
E. coli [6]; 0.5 MIC
  % killing: 97.692%
  Log reduction: 1.48 ± 0.212
E. coli [6]; 2 MIC
  % killing: >99.999%
  Log reduction: 8.40 ± 0.403
E. coli [6]; MIC
  % killing: >99.999%
  Log reduction: 7.53 ± 0.173
E. coli [7]; two minutes
  % kill: 99.8%
  Log reduction: 2.85
[8]
  sharp point of inflection indicating the critical micellar concentrations: not observed
[9]; Acetone
  State in solvent: Insoluble
[9]; Acetonitrile
  State in solvent: Insoluble
[9]; EtOH
  Concentration to form gel: (11 wt %)
  State in solvent: Gel
[9]; Ethylene glycol
  State in solvent: Solution
[9]; Glycerol
  State in solvent: Solution
[9]; nBuOH
  Concentration to form gel: (9.2 wt %)
  State in solvent: Gel
[9]; nPrOH
  Concentration to form gel: (7.8 wt %)
  State in solvent: Gel

## CCCCCCCCCCCC[n+]1ccn(Cc2ccc(C[n+]3ccn(Cc4ccc(C[n+]5ccn(Cc6ccccc6Cn6cc[n+](Cc7ccc(Cn8cc[n+](Cc9ccc(Cn%10cc[n+](CCCCCCCCCCCC)c%10)cc9)c8)cc7)c6)c5)cc4)c3)cc2)c1.[Br-].[Br-].[Cl-].[Cl-].[Cl-].[Cl-] [Compound 4]
S. aureus [1]
  MIC S.A.: 4 µg/mL
E. coli [2]
  MIC E. coli: 8 µg/mL
P. aeruginosa
  MIC P.A.: 16 µg/mL
C. Albicans
  MIC C.A.: 31 µg/mL
[3]
  MIC GM: 11.22 µg/mL
[4]
  HC10: 31 ppm
E. coli [7]; E. coli time kill
  fast killing in words: instantaneous elimination
E. coli [7]; two minutes
  % kill: >99.9%
  Log reduction: 3.69
[8]; PBS buffer solution
  CMC in PBS: 10.9 ppm
[8]; deionised water
  CMC in DI H2O: 938.5 ppm
[9]; Acetone
  State in solvent: Insoluble
[9]; Acetonitrile
  State in solvent: Insoluble
[9]; EtOH
  Concentration to form gel: (9.0 wt %)
  State in solvent: Gel
[9]; Ethylene glycol
  State in solvent: Solution
[9]; Glycerol
  State in solvent: Solution
[9]; binary mixtures of water/ethanol and glycerol/ethanol
  Gel formation: did not form a gel
[9]; nBuOH
  Concentration to form gel: (5.8 wt %)
  State in solvent: Gel
[9]; nPrOH
  Concentration to form gel: (7.2 wt %)
  State in solvent: Gel

## c1ccc(C[n+]2ccn(Cc3ccc(C[n+]4ccn(Cc5ccc(C[n+]6ccn(Cc7ccccc7Cn7cc[n+](Cc8ccc(Cn9cc[n+](Cc%10ccc(Cn%11cc[n+](Cc%12ccccc%12)c%11)cc%10)c9)cc8)c7)c6)cc5)c4)cc3)c2)cc1 [IBN-1, reference compound]
S. aureus [1]
  MIC S.A.: 3 µg/mL
E. coli [2]
  MIC E. coli: 4 µg/mL
P. aeruginosa
  MIC P.A.: 31 µg/mL
C. Albicans
  MIC C.A.: 31 µg/mL
[3]
  MIC GM: 10.36 µg/mL
[4]
  HC10: >100000 ppm
E. coli [7]; E. coli (3×10^8 cells mL^−1), 32 ppm concentration of oligomer compounds, two minutes
  killing within two minutes: 83%
E. coli [7]; two minutes
  % kill: 83.33%
  Log reduction: 0.79
[8]
  sharp point of inflection indicating the critical micellar concentrations: not observed
[9]; any of the solvents
  Gel formation: not able to form gels
